Results on 78 compounds are retold here after the METLIN SMRT retention time set (Domingo-Almenara et al. 2019).

The nature of this series: gradient 5% acetonitrile 3 min, to 50% in 2 min, to 85% in 15 min, held 3 min, 100 µL/min. The following applies: column: Zorbax Extend-C18 2.1 x 50 mm; eluents: water / acetonitrile, 0.1% formic acid. The method in brief:
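Pure standards were run in mixtures of ~100 molecules by HPLC coupled to a quadrupole time-of-flight mass spectrometer. The column was a Zorbax Extend-C18 (2.1 × 50 mm, 1.8 μm) at 100 μL/min, with water and acetonitrile each containing 0.1% formic acid, in positive and negative ionization mode. Dead and dwell volumes were 40 μL and 900 μL. Retention time was taken from computationally picked adduct peaks, each manually inspected, with data collected over 3 months.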
`Cc1nc(-c2cn(C)c3ncccc23)sc1C(=O)N1CCN(c2ccccc2)CC1` had an RP-LC retention time of 932 s.
The value for `COc1ccccc1N1CCN([C@H]2CS(=O)(=O)C[C@@H]2S(=O)(=O)c2ccc(F)c(C)c2)CC1` was 864 s; that for `CCOc1ccccc1NC(=O)Cn1nc2cc(-c3ccc(OC)cc3)nc(C)n2c1=O` was 1020 s.
`CC(=O)[C@H]1CCC2C3CC[C@H]4C[C@H](O)CC[C@]4(C)C3CC[C@@]21C` (stereo partly drawn) registered an RP-LC retention time of 1270 s.
The same measure for `COc1ccc(S(=O)(=O)N2CCCC(C(=O)NC(C)C)C2)cc1OC` (stereo not drawn): 720 s.
The same measure for `O=C(c1ccnnc1)N1C[C@@H](COCC2CC2)[C@H](c2ccccn2)C1`: 654 s; for `CCCNC(=O)C1CCN(c2ccc(SCC(=O)Nc3c(C)cccc3Cl)nn2)CC1`: 1160 s; for `COC(=O)c1cc2c(=O)n(Cc3ccccc3Cl)ccc2nc1C`: 902 s.
The same measure for `CN1CCN(CCNC(=O)CC2CCN(C(=O)c3cc4cc(Cl)ccc4[nH]3)CC2)CC1`: 618 s; for `Cc1ccc(-c2ccc(-n3nc(C)c(S(=O)(=O)Nc4ccc5c(c4)OCCO5)c3C)nn2)cc1C`: 1100 s; for `COC(=O)c1cc(S(=O)(=O)N2CCCC2C(=O)Nc2cccc(C)n2)cn1C` (stereo not drawn): 773 s.
In turn, `COc1ccc(C2Cn3nnc(-c4nc(-c5ccc(OC(C)C)cc5)no4)c3CO2)cc1` (stereo not drawn) registered an RP-LC retention time of 1250 s.
The value for `CCOC(=O)c1ccc(NC(=O)N(C)Cc2nc3cc(C(=O)N(C)C)ccc3n2C)cc1` was 634 s.
The same measure for `O=C(Cn1c(=O)n(C2CCCCC2)c2ncccc21)NCCCN1CCOCC1`: 612 s; for `COCc1noc(CC2CCOC3(CCN(Cc4ccc5c(c4)CCO5)CC3)C2)n1` (stereo not drawn): 646 s; for `COc1ccc(CCC(=O)Nc2cnn(-c3ncc(N4CCCC4)cn3)c2)cc1`: 822 s.
As to `Cc1cc(C(=O)Nc2nc3c(s2)CN(C(=O)c2snnc2C)CC3)no1`, the RP-LC retention time was found to be 660 s.
For the compound `O=C(NCC(F)(F)F)C1CCN(S(=O)(=O)CCN2C(=O)CCCC2=O)CC1`, the RP-LC retention time stood at 637 s.
The value for `O=C(c1ccc(Cl)s1)N1CCCCC1c1nncn1CC1CC1` (stereo not drawn) was 800 s.
The value for `O=C(Cc1ccccc1)N1[C@H]2CC[C@@H]1c1cnc(-c3ccccc3)nc1C2` was 898 s; that for `COc1ccc(-n2nc(C)c3sc(N4CCCC(C(=O)NC5CCCC5)C4)nc32)cc1` (stereo not drawn) was 1040 s; that for `COc1nccnc1NC1CCN(C(=O)c2ccco2)CC1` was 690 s.
In turn, `O=C(NCCc1ccccc1)NCC1CCN(Cc2ccco2)CC1` registered an RP-LC retention time of 562 s.
Compound `CCOc1cccc(CNC(=O)C2CCN(Cc3cn(C)c4ccccc34)CC2)c1` yielded an RP-LC retention time of 686 s.
The value for `C[C@@H](O)[C@H](NC(=O)c1ccc(C#Cc2ccc(CN3CCOCC3)cc2)cc1)C(=O)NO` was 629 s; that for `Cc1ccc(NC(=O)Cn2ccc3sccc3c2=O)cc1C` was 740 s.
The same measure for `CC1CCN(CCCC(=O)c2ccc(F)cc2)CC1`: 685 s; for `Cc1ccc(C)c(Cn2nnc(C(=O)O)c2C)c1`: 783 s; for `Cc1cccc(C)c1NC(=O)CN1C(=O)NC(c2ccc(Cl)cc2)C2=C1COC2=O` (stereo not drawn): 747 s.
For the compound `NS(=O)(=O)c1ccc(CCNC(=O)C(=O)Nc2ccc(Cl)cn2)cc1`, the RP-LC retention time stood at 695 s.
The value for `O=C(Cn1nc2c(N3CCCCCC3)nccn2c1=O)Nc1ccc(Cl)cc1F` was 786 s; that for `COCc1nc2cccnc2n1C1CCN(C(=O)Nc2ccc3c(c2)OCO3)CC1` was 658 s.
The compound `O=C(c1cc(-c2cccnc2)n[nH]1)N1CCCC(C(=O)N2CCN(c3ccc(Cl)cc3)CC2)C1` (stereo not drawn) yielded an RP-LC retention time of 685 s.
Regarding `CCOC(=O)c1ccc(N2C=C(C#N)S(=O)(=O)c3ccc(Cl)cc32)cc1`, the RP-LC retention time turned out to be 1020 s.
The value for `COC1CN(C2CCN(C(=O)CC(C)C)CC2)C12CCOCC2` (stereo not drawn) was 579 s.
The same measure for `COc1ccc(-c2ccnc3nc(CC(C)C)nn23)cc1`: 905 s; for `CC(=O)Nc1ccc(-c2noc(C3CCN(C(=O)C4(c5ccccc5)CC4)CC3)n2)cc1`: 837 s; for `COc1ccc(OC)c(NS(=O)(=O)c2c(C)nn(-c3ccc(-c4ccc(C)cc4)nn3)c2C)c1`: 1110 s.
Regarding `Cc1ccc(C(=O)N(c2ccc(Br)cc2)C2C=CS(=O)(=O)C2)cc1` (stereo not drawn), the RP-LC retention time turned out to be 835 s.
`CCOc1ccc(S(=O)(=O)N2CCC(C(=O)Nc3ccc(Br)cc3F)CC2)cc1` had an RP-LC retention time of 1060 s.
The value for `Cc1ccc(Cn2c(=O)c(N3CCN(C(=O)NCc4ccco4)CC3)nc3ccccc32)cc1` was 1010 s.
Regarding `O=C(CCc1nnn2c1CN(C(=O)COc1ccc(F)cc1)CC2)N1CCCC1`, the RP-LC retention time came to 665 s.
`Cc1oc(-c2[nH]ncc2C(=O)N2CCCC2)cc1S(=O)(=O)NCc1ccccc1` displayed an RP-LC retention time of 700 s.
The same measure for `CCN(CCO)CCCOc1ccc2c(Nc3cc(CC(=O)Nc4cccc(F)c4)[nH]n3)ncnc2c1`: 611 s.
The value for `CC1Cc2ccccc2N1C(=O)CSc1nnc(-c2ccccc2)o1` (stereo not drawn) was 1010 s; that for `CC(C)C(=O)Nc1ccc(N2CCN(CC(=O)N3CCCC3)CC2)cc1C(=O)O` was 587 s.
As to `CCC(=O)N1CCc2c(C(=O)N3CCN(c4ccccc4)CC3)cccc21`, the RP-LC retention time amounted to 829 s.
The same measure for `CCSc1nnc(-c2nn(C)c3c2CN(S(=O)(=O)c2ccc(C)c(Cl)c2)CC3)n1CC`: 1050 s; for `O=C(Nc1ccc(OCc2nnc(-c3ccccc3)o2)cc1)c1cncc(Br)c1`: 883 s; for `CCOC(=O)N1CCN(c2cc(C(=O)O)c3cc(NC(=O)c4ccc(Cl)cc4)ccc3n2)CC1`: 667 s.
The value for `O=C(N[C@@H](COc1ccc2[nH]c(=O)[nH]c2c1)c1ccccc1)c1cccn(Cc2ccc(F)c(F)c2)c1=O` was 893 s; that for `COc1cccc(CNc2ccc(-c3nc(-c4ccc(F)cc4)no3)cn2)c1` was 1180 s; that for `Fc1ccc(-c2nnc(Cc3nc(-c4ccccc4F)no3)o2)cc1` was 1010 s.
The compound `COc1ccc2c(c1)C1(CCN(C(=O)c3ccc(F)cc3)C1)C(=O)N2C` (stereo not drawn) yielded an RP-LC retention time of 759 s.
The value for `COCCOc1ccc(N2CCN(CCn3ncc4c3nc(N)n3nc(-c5ccco5)nc43)CC2)cc1` was 665 s; that for `CCCOC(=O)C1=CN(C)S(=O)(=O)N=C1C` was 796 s.
The same measure for `c1ccc(CCNc2nc(-c3ccccc3)no2)cc1`: 1000 s; for `Cc1cccc(NS(=O)(=O)c2cn(CC(C)C)c3ncccc23)c1`: 960 s; for `CC(C)c1ccc(Nc2c(-c3ccc(N(C)C)cc3)nc3cnccn23)cc1`: 1010 s.
The same measure for `CCc1ccc(N2C=C(C(=O)OC)S(=O)(=O)c3ccccc32)cc1`: 942 s; for `COc1ccc2c(c1)C1(CCN(C(=O)c3cccc(C)c3)C1)C(=O)N2` (stereo not drawn): 738 s.
`O=C(COc1ccc(-c2nnc3n2CCCC3)cc1)N1CCc2ccccc21` registered an RP-LC retention time of 790 s.
`Cc1cc(N2CCN(C(=O)COc3ccc(Cl)cc3)CC2)nc2nnc(C)n12`: the RP-LC retention time amounted to 637 s.
The same measure for `COc1cc(C(=O)N2CCC3(CC2)NC(=O)c2ccc(F)cc2N3C)cc(OC)c1OC`: 655 s; for `CCOc1ccc(-c2nc(Cc3noc(-c4cccc(OC)c4)n3)c(C)o2)cc1`: 1220 s.
The value for `CCOc1cc(=O)n2c(c1C(=O)Nc1ccc(Cl)cc1C)CCCC2` was 786 s; that for `O=C(NCC1CCCO1)C1CCN(c2nccnc2Sc2ccccc2)CC1` (stereo not drawn) was 796 s; that for `CCn1cnc2c1CN(C(=O)c1ccc3c(c1)OCO3)CC2` was 564 s.
`Cc1ccc(C)c(-c2cc3c(=O)n(Cc4nc(-c5ccccc5Br)no4)ncn3n2)c1` showed an RP-LC retention time of 1220 s.
As for `Cn1c(=O)c2c(C(=O)NCC3CCN(Cc4ccc(Cl)cc4)CC3)cc(=O)n(C)c2n(C)c1=O`, the RP-LC retention time worked out at 626 s.
In turn, `O=C(NCC1CCCO1)c1nnc(-c2ccc(S(=O)(=O)N3CCCCC3)cc2)o1` (stereo not drawn) came in with an RP-LC retention time of 797 s.
Take `CCc1nncn1C1CCN(S(=O)(=O)c2cc(F)ccc2OC)CC1`: the RP-LC retention time amounted to 696 s.
For `Cc1ccc(-c2cn3c(CC(=O)NCc4ccc(F)cc4)csc3n2)cc1C`, the RP-LC retention time came out at 843 s.
The same measure for `O=C(CCC1CCN(S(=O)(=O)c2cccc(F)c2)CC1)NC1CC1`: 781 s; for `Cc1ccc(CNC(=O)c2ccc3c(c2)CC(=O)N3C)o1`: 693 s; for `COc1ccccc1CNC1=NCCNC12CCN(S(=O)(=O)c1ccc(Cl)cc1)CC2`: 750 s.
The same measure for `CCOc1cc(=O)n2c(c1C(=O)OCc1cccc(C)c1)CCCC2`: 926 s; for `Cc1ccc(-c2ccc(N3CCN(c4ccccn4)CC3)nn2)cc1S(=O)(=O)N1CCOCC1`: 623 s.
